Data from patent US12319672B2, “Alpha-D-galactopyranoside derivatives” (Idorsia Pharmaceuticals Ltd, priority 2019, dated 2025).

Experiments:
[1] = molecular target: human Gal-1 (hGal-1); test: Competitive binding assay: binding of biotinylated hGal-1 to microplate-adsorbed asialofetuin (ASF); settings: Activities on hGal-1; mean values of several measurements
Description: (§1) Evaluation of Compound Inhibitory Activity (IC50)
(§2) The inhibitory activity of compounds is determined in competitive binding assays. This spectrophotometric assay measures the binding of biotinylated human Gal-3 (hGal-3) or human Gal-1 (hGal-1), respectively, to a microplate-adsorbed glycoprotein, asialofetuin (ASF) (Proc Natl Acad Sci USA. 2013 Mar. 26; 110(13):5052-7.). Alternatively, and preferably, a human Gal-1 version in which all six cysteines are substituted by serines may be used.
(§3) Briefly, compounds are serially diluted in DMSO (working dilutions). ASF-coated 384 well plates are supplemented with 22.8 μL/well of biotinylated hGal-3 or hGal-1 in assay buffer (i.e. 300-1000 ng/mL biotinylated hGal-3 or hGal-1) to which 1.2 μL of compound working dilutions are added and mixed.
(§4) Plates are incubated for 3 hours at 4° C., then washed with cold assay buffer (3×50 uL), incubated for 1 hour with 25 μL/well of a streptavidin-peroxidase solution (diluted in assay buffer to 80 ng/mL) at 4° C., followed by further washing steps with assay buffer (3×50 uL). Finally, 25 μL/well of ABTS substrate is added.
(§5) The calculated IC50 values may fluctuate depending on the daily assay performance. Fluctuations of this kind are known to those skilled in the art. IC50 values from several measurements are given as mean values.

[2] = molecular target: human Gal-3 (hGal-3) (Homo sapiens (Human), UniProt P17931); test: Competitive binding assay: binding of biotinylated hGal-3 to microplate-adsorbed asialofetuin (ASF); settings: Activity on hGal-3; mean values of several measurements
Chain of human Gal-3 (hGal-3) (P17931 whole entry): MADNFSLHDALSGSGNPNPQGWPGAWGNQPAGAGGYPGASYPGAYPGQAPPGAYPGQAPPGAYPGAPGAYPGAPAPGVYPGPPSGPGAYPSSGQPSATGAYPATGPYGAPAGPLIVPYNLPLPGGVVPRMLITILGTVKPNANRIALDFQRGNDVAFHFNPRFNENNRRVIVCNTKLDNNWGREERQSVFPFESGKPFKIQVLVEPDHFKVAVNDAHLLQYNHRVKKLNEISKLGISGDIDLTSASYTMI
Description: as §1, §2, §3, §4, §5

Chain of human Gal-1 (hGal-1) (P09382 2-135 limits assumed): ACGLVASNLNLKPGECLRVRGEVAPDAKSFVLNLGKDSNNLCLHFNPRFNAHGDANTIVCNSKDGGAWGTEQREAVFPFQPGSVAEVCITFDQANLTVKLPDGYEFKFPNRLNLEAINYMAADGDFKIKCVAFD

CNC(=O)CO[C@@H]1[C@@H](n2cc(-c3cc(F)c(F)c(F)c3)nn2)[C@@H](O)[C@@H](CO)O[C@@H]1CC1CC(C2CCN(C(=O)OC(C)(C)C)CC2)=NO1 (mixture of isomers) [Example 2.35, tert-butyl 4-((RS)-5-(((2R,3R,4S,5R,6R)-5-hydroxy-6-(hydroxymethyl)-3-(2-(methylamino)-2-oxoethoxy)-4-(4-(3,4,5-trifluorophenyl)-1H-1,2,3-triazol-1-yl)tetrahydro-2H-pyran-2-yl)methyl)-4,5-dihydroisoxazol-3-yl)piperidine-1-carboxylate]
IC50 [1]: 2620 nM
IC50 [2]: 140 nM

CC(C)(C)OC(=O)N1CCC(C2=NOC(C[C@H]3O[C@H](CO)[C@H](O)[C@H](n4cc(-c5cc(F)c(F)c(F)c5)nn4)[C@H]3OCC(=O)N3CCOCC3)C2)CC1 (mixture of isomers) [Example 2.36, tert-butyl 4-((RS)-5-(((2R,3R,4S,5R,6R)-5-hydroxy-6-(hydroxymethyl)-3-(2-morpholino-2-oxoethoxy)-4-(4-(3,4,5-trifluorophenyl)-1H-1,2,3-triazol-1-yl)tetrahydro-2H-pyran-2-yl)methyl)-4,5-dihydroisoxazol-3-yl)piperidine-1-carboxylate]
IC50 [1]: 2770 nM
IC50 [2]: 120 nM

OC[C@H]1O[C@H](CC2CC(C3CCNCC3)=NO2)[C@H](O)[C@@H](n2cc(-c3cc(F)c(F)c(F)c3)nn2)[C@H]1O (mixture of isomers) [Example 3.01, (2R,3R,4R,5R,6R)-2-(hydroxymethyl)-6-(((RS)-3-(piperidin-4-yl)-4,5-dihydroisoxazol-5-yl)methyl)-4-(4-(3,4,5-trifluorophenyl)-1H-1,2,3-triazol-1-yl)tetrahydro-2H-pyran-3,5-diol]
IC50 [1]: 5710 nM
IC50 [2]: 300 nM

CN1CCC(C2=NOC(C[C@H]3O[C@H](CO)[C@H](O)[C@H](n4cc(-c5cc(F)c(F)c(F)c5)nn4)[C@H]3O)C2)CC1 (mixture of isomers) [Example 3.02, (2R,3R,4R,5R,6R)-2-(hydroxymethyl)-6-(((RS)-3-(1-methylpiperidin-4-yl)-4,5-dihydroisoxazol-5-yl)methyl)-4-(4-(3,4,5-trifluorophenyl)-1H-1,2,3-triazol-1-yl)tetrahydro-2H-pyran-3,5-diol]
IC50 [1]: 4620 nM
IC50 [2]: 340 nM

CC(=O)N1CCC(C2=NOC(C[C@H]3O[C@H](CO)[C@H](O)[C@H](n4cc(-c5cc(F)c(F)c(F)c5)nn4)[C@H]3O)C2)CC1 (mixture of isomers) [Example 3.03, 1-(4-((RS)-5-(((2R,3R,4R,5R,6R)-3,5-dihydroxy-6-(hydroxymethyl)-4-(4-(3,4,5-trifluorophenyl)-1H-1,2,3-triazol-1-yl)tetrahydro-2H-pyran-2-yl)methyl)-4,5-dihydroisoxazol-3-yl)piperidin-1-yl)ethan-1-one]
IC50 [1]: 2490 nM
IC50 [2]: 150 nM

CO[C@@H]1[C@@H](n2cc(-c3cc(F)c(F)c(F)c3)nn2)[C@@H](O)[C@@H](CO)O[C@@H]1CC1CC(C2CCNCC2)=NO1 (mixture of isomers) [Example 3.04, (2R,3R,4S,5R,6R)-2-(hydroxymethyl)-5-methoxy-6-(((RS)-3-(piperidin-4-yl)-4,5-dihydroisoxazol-5-yl)methyl)-4-(4-(3,4,5-trifluorophenyl)-1H-1,2,3-triazol-1-yl)tetrahydro-2H-pyran-3-ol]
IC50 [1]: 5650 nM
IC50 [2]: 550 nM

CO[C@@H]1[C@@H](n2cc(-c3cc(F)c(F)c(F)c3)nn2)[C@@H](O)[C@@H](CO)O[C@@H]1CC1CC(C2CCN(C(C)=O)CC2)=NO1 (mixture of isomers) [Example 3.05, 1-(4-((RS)-5-(((2R,3R,4S,5R,6R)-5-hydroxy-6-(hydroxymethyl)-3-methoxy-4-(4-(3,4,5-trifluorophenyl)-1H-1,2,3-triazol-1-yl)tetrahydro-2H-pyran-2-yl)methyl)-4,5-dihydroisoxazol-3-yl)piperidin-1-yl)ethan-1-one]
IC50 [1]: 1860 nM
IC50 [2]: 290 nM

OC[C@H]1O[C@H](CC2=NOC(C3CCNCC3)C2)[C@H](O)[C@@H](n2cc(-c3cc(F)c(F)c(F)c3)nn2)[C@H]1O (mixture of isomers) [Example 3.09, (2R,3R,4R,5R,6R)-2-(hydroxymethyl)-6-(((RS)-5-(piperidin-4-yl)-4,5-dihydroisoxazol-3-yl)methyl)-4-(4-(3,4,5-trifluorophenyl)-1H-1,2,3-triazol-1-yl)tetrahydro-2H-pyran-3,5-diol]
IC50 [1]: 13300 nM
IC50 [2]: 840 nM

CC(=O)N1CCC(C2CC(C[C@H]3O[C@H](CO)[C@H](O)[C@H](n4cc(-c5cc(F)c(F)c(F)c5)nn4)[C@H]3O)=NO2)CC1 (mixture of isomers) [Example 3.18, 1-(4-((RS)-3-(((2R,3R,4R,5R,6R)-3,5-dihydroxy-6-(hydroxymethyl)-4-(4-(3,4,5-trifluorophenyl)-1H-1,2,3-triazol-1-yl)tetrahydro-2H-pyran-2-yl)methyl)-4,5-dihydroisoxazol-5-yl)piperidin-1-yl)ethan-1-one]
IC50 [1]: 2220 nM
IC50 [2]: 180 nM

CC(=O)O[C@@H]1[C@@H](n2cc(-c3cc(F)c(F)c(F)c3)nn2)[C@@H](O)[C@@H](CO)O[C@@H]1CC1=NOC(C2CCN(C(C)=O)CC2)C1 (mixture of isomers) [Example 3.23, (2R,3R,4S,5R,6R)-2-(((RS)-5-(1-acetylpiperidin-4-yl)-4,5-dihydroisoxazol-3-yl)methyl)-5-hydroxy-6-(hydroxymethyl)-4-(4-(3,4,5-trifluorophenyl)-1H-1,2,3-triazol-1-yl)tetrahydro-2H-pyran-3-yl acetate]
IC50 [1]: 3990 nM
IC50 [2]: 230 nM

CO[C@@H]1[C@@H](n2cc(-c3cc(F)c(F)c(F)c3)nn2)[C@@H](O)[C@@H](CO)O[C@@H]1CC1=NOC(C2CCNCC2)C1 (mixture of isomers) [Example 3.36, (2R,3R,4S,5R,6R)-2-(hydroxymethyl)-5-methoxy-6-(((RS)-5-(piperidin-4-yl)-4,5-dihydroisoxazol-3-yl)methyl)-4-(4-(3,4,5-trifluorophenyl)-1H-1,2,3-triazol-1-yl)tetrahydro-2H-pyran-3-ol]
IC50 [1]: 8140 nM
IC50 [2]: 1160 nM

CO[C@@H]1[C@@H](n2cc(-c3cc(F)c(F)c(F)c3)nn2)[C@@H](O)[C@@H](CO)O[C@@H]1CC1=NOC(C2CCN(C(C)=O)CC2)C1 (mixture of isomers) [Example 3.40, 1-(4-((RS)-3-(((2R,3R,4S,5R,6R)-5-hydroxy-6-(hydroxymethyl)-3-methoxy-4-(4-(3,4,5-trifluorophenyl)-1H-1,2,3-triazol-1-yl)tetrahydro-2H-pyran-2-yl)methyl)-4,5-dihydroisoxazol-5-yl)piperidin-1-yl)ethan-1-one]
IC50 [1]: 1210 nM
IC50 [2]: 310 nM

CCC(C)C(=O)N1CCC(c2cc(C[C@H]3O[C@H](CO)[C@H](O)[C@H](n4cc(-c5cc(F)c(F)c(F)c5)nn4)[C@H]3OC)no2)CC1 (mixture of isomers) [Example 3.53, (RS)-1-(4-(3-(((2R,3R,4S,5R,6R)-5-hydroxy-6-(hydroxymethyl)-3-methoxy-4-(4-(3,4,5-trifluorophenyl)-1H-1,2,3-triazol-1-yl)tetrahydro-2H-pyran-2-yl)methyl)isoxazol-5-yl)piperidin-1-yl)-2-methylbutan-1-one]
IC50 [1]: 2510 nM
IC50 [2]: 190 nM

CO[C@@H]1[C@@H](n2cc(-c3cc(F)c(F)c(F)c3)nn2)[C@@H](O)[C@@H](CO)O[C@@H]1Cc1cc(C2CCN([S+]([O-])C(C)(C)C)CC2)on1 (mixture of isomers) [Example 3.55, (2R,3R,4S,5R,6R)-6-((5-(1-((RS)-tert-butylsulfinyl)piperidin-4-yl)isoxazol-3-yl)methyl)-2-(hydroxymethyl)-5-methoxy-4-(4-(3,4,5-trifluorophenyl)-1H-1,2,3-triazol-1-yl)tetrahydro-2H-pyran-3-ol]
IC50 [1]: 2990 nM
IC50 [2]: 90 nM

CO[C@@H]1[C@@H](n2cc(-c3cc(F)c(F)c(F)c3)nn2)[C@@H](O)[C@@H](CO)O[C@@H]1Cc1cc(C2CCN(S(=N)(=O)C(C)(C)C)CC2)on1 (mixture of isomers) [Example 3.56, (RS)-(2R,3R,4S,5R,6R)-2-(hydroxymethyl)-5-methoxy-6-((5-(1-(2-methylpropan-2-ylsulfonimidoyl)piperidin-4-yl)isoxazol-3-yl)methyl)-4-(4-(3,4,5-trifluorophenyl)-1H-1,2,3-triazol-1-yl)tetrahydro-2H-pyran-3-ol]
IC50 [1]: 610 nM
IC50 [2]: 20 nM

CN=S(=O)(C(C)C)N1CCC(c2cc(C[C@H]3O[C@H](CO)[C@H](O)[C@H](n4cc(-c5cc(F)c(F)c(F)c5)nn4)[C@H]3OC)no2)CC1 (mixture of isomers) [Example 3.57, (RS)-(2R,3R,4S,5R,6R)-2-(hydroxymethyl)-5-methoxy-6-((5-(1-(N-methylpropan-2-ylsulfonimidoyl)piperidin-4-yl)isoxazol-3-yl)methyl)-4-(4-(3,4,5-trifluorophenyl)-1H-1,2,3-triazol-1-yl)tetrahydro-2H-pyran-3-ol]
IC50 [1]: 1400 nM
IC50 [2]: 97 nM
